What all share (type): functional, cell-based
Test [1] can be described thus: Cytotoxicity against mouse colon 26-L5 cells after 72 hrs by MTT assay. (Tetrazolium dyes change colour on reduction, which living cells bring about.)
A short description of test [2]: Cytotoxicity against mouse B16-BL6 cells after 72 hrs by MTT assay. As to conditions: B16-BL6, 72 h.
A short description of test [3]: Cytotoxicity against mouse LLC cells after 72 hrs by MTT assay. As to conditions: Lewis lung carcinoma.
In the next test the test system is A549. The experiment in a line: Cytotoxicity against human A549 cells after 72 hrs by MTT assay. Conditions: A549, 72 h.
In a further test the test system is HeLa. The experiment in a line: Cytotoxicity against human HeLa cells after 72 hrs by MTT assay.
A further test deals with HT-1080. Description: Cytotoxicity against human HT1080 cells after 72 hrs by MTT assay. As to conditions: HT-1080, 72 h.

For orientation: IC50 means the concentration that inhibits the measured activity by half. Higher therefore signals lower potency.

Structures are written as SMILES. A value given as a limit tells only on which side of the number the result lay.

As to `COc1c(O)cc2oc(-c3ccccc3)c(O)c(=O)c2c1O` [ALNUSIN], the IC50 (in test [1]; in test [2]; in test [3]; in the test on A549; with HeLa; in the test on HT-1080) was greater than 100 µM throughout.

In the case of `COc1ccc2c(C)c(-c3ccc(O)cc3O)oc2c1`, the IC50 is 27.8 µM in test [1]; 44.8 µM in test [2]; 34.4 µM in test [3]; 42.6 µM with A549; 36.1 µM in the test with HeLa; 38.7 µM in the test with HT-1080.

In the case of `COc1ccc([C@H]2COc3cc(OC)ccc3C2)c(O)c1`, the half-maximal inhibitory concentration (IC50) came to 29.8 µM in test [1]; 24.1 µM in test [2]; 24 µM in test [3]; 46 µM in the test with A549; 44.3 µM with HeLa; 50.1 µM with HT-1080.

In the case of `COc1ccc([C@H]2COc3cc(O)ccc3C2=O)c(OC)c1O`, the 50% inhibitory concentration (IC50) (in test [1]; in test [2]; in test [3]; with A549; with HeLa; in the test on HT-1080) was greater than 100 µM throughout.

In the case of `COc1cc(O)ccc1C(=O)/C=C/c1ccc(O)cc1`, the 50% inhibitory concentration (IC50) in test [1] was found to be 12.3 µM; in test [2] it was 56.3 µM; in test [3] it was 69.1 µM; in the test with A549, 62.1 µM; in the test with HeLa, 67.9 µM; with HT-1080, 51.2 µM.

On to `COc1cc2c(cc1OC)[C@@H]1COc3cc(O)ccc3[C@@H]1O2` [SECUNDIFLOROL I], for which the IC50 in test [1] was 44.5 µM; in test [2], 64.9 µM; in test [3], greater than 100 µM; in the test on A549, greater than 100 µM; in the test with HeLa, 84.3 µM; in the test on HT-1080 it was greater than 100 µM.

As for `COc1ccc(-c2coc3cc(O)cc(O)c3c2=O)cc1O` [PRATENSEIN], the IC50 (in test [1]; in test [2]; in test [3]; in the test with A549; in the test with HeLa; in the test with HT-1080) was greater than 100 µM in each case.

In the case of `COc1c(O)cc2c(c1O)C(=O)[C@H](O)[C@@H](c1ccccc1)O2` [ALNUSTINOL], the IC50 (in test [1]; in test [2]; in test [3]; in the test with A549; with HeLa; in the test with HT-1080) was greater than 100 µM each time.

In the case of `COc1ccc([C@H]2COc3cc(O)ccc3C2)c(O)c1`, the IC50 is 67 µM in test [1]; 57.4 µM in test [2]; 92.3 µM in test [3]; greater than 100 µM in the test with A549; 72.6 µM with HeLa; greater than 100 µM with HT-1080.

These data come from ChEMBL document CHEMBL1150308, “Cytotoxic constituents from Brazilian red propolis and their structure-activity relationship” (Bioorg Med Chem, 2008).
